Experimental data as given in article PMC3128011, “Central nervous system exposure of next generation quinoline methanols is reduced relative to mefloquine after intravenous dosing in mice” (Malaria Journal, 2011).
Converted amounts (≈) assume the structure as drawn. Like-named read-outs stand apart in the source and are kept apart here.

Columns and labels:
[1] = Brain and plasma concentrations after IV dosing in mice (LCMS/MS); free brain level from equilibrium dialysis fu; type: in vivo; conditions: male FVB mice, IV 5 mg/kg; for Maximum whole brain concentration: sampled 5 min, 1, 6, 24 h; for Maximum free brain concentration: whole brain concentration x fu from brain homogenate equilibrium dialysis; for remaining at 24 h: mouse, plasma, 24 h relative to the 5 minute time point, read-out: Residual plasma concentration at 24 h (24h % Remaining)
Procedure: All in vivo studies were conducted in accordance with protocols approved by the Victorian College of Pharmacy, Animal Ethics Committee. Male, six week old FVB mice were obtained from the Animals Resources Center (Perth, Western Australia) and provided with food and water ad libitum. Mice were administered a 50 μL bolus injection of mefloquine, its enantiomers or one of twenty five quinoline methanol compounds by tail vein injection (dosing solution concentration 2.8 mg/ml) for a nominal dose of 5 mg/kg. The compounds were prepared in 5% DMSO in 5% glucose solution buffered to a pH of 3-5 using citrate or acetate as appropriate based on an assessment of the lipophilicity and pKa of the compound. At 5 min, 1 h, 6 h or 24 h post-dosing, mice were anaesthetized with inhaled isoflurane (3%) approximately 3-4 minutes prior to blood and brain harvest. Blood was collected by cardiac puncture from groups of 2-3 mice and the whole brain was removed. The whole brains were placed into preweighed polypropylene vials and snap frozen prior to storage along with the plasma samples at -20°C until analysis. On the day of analysis, the whole brain was homogenized in three parts of aqueous solution containing 0.1 M EDTA and 0.4 g/L KF (inhibitors of hydrolytic enzymes to reduce the potential for ex vivo tissue-mediated degradation of the test compounds). Calibration standards were prepared by spiking blank brain homogenate and blank plasma with the test compound. Both samples and standards were processed by adding acetonitrile (to precipitate proteins) and centrifuged to separate the supernatant for analysis. An aliquot of the supernatant from each brain homogenate and plasma samples were analysed by UPLC/MS/MS on either a Quattro Premier XE, a Quattro Ultima Pt or a Xevo XT Mass Spectrometer (Waters Corporation, USA).
The unbound fraction of each analog in mouse brain homogenate was determined in vitro using equilibrium dialysis according to methodology reported previously. In brief, a 96 well equilibrium dialysis apparatus was used to determine the unbound fraction in brain homogenate for each compound (HT Dialysis LLC, Gales Ferry, CT). Membranes (12-14 kDA cut-off) were conditioned in deionized water for 60 minutes, followed by conditioning in 80:20 deionized water:ethanol for 20 minutes, and then rinsed in artificial cerebrospinal fluid (CSF) before use. Mouse brain was removed from the freezer and allowed to thaw on the day of experiment. Thawed brain tissue was then homogenized with artificial CSF to a final composition of 1:2 brain:artificial CSF using a Covaris S2 (K Biosciences, Hoddesdon, UK). Diluted brain homogenate was then spiked with the test compound (10 ug/g), and 150 μL aliquots (n = 6 replicate determinations) loaded into the 96-well equilibrium dialysis plate. Dialysis vs artificial CSF (150 μL) was carried out for 5 hours in a temperature controlled incubator at ca. 37°C (Barworld Scientific Ltd, UK) using an orbital microplate shaker at 125 revolutions/minute (Barworld scientific Ltd, UK). At the end of the incubation period, aliquots of brain homogenate or artificial CSF were transferred to micronic tubes (Micronic B.V., the Netherlands) and the composition in each tube balanced with control fluid, such that the volume of artificial CSF to brain was the same. Sample extraction was performed by the addition of 400 μL of acetonitrile containing an appropriate internal standard. Samples were allowed to mix for 1 minute and then centrifuged at 3000 rpm in 96-well blocks for 15 minutes (Allegra X12-R, Beckman Coulter, USA). All samples were then analysed by UPLC/MS/MS on a Quattro Premier XE Mass Spectrometer (Waters Corporation, USA). The unbound fraction in brain was determined as the ratio of the peak area in artificial CSF to that in brain, with correction for dilution factor according to eq.1 [14].(1) [drawing 1] […]

P. falciparum strain W2 = test: Plasmodium falciparum susceptibility assay (labeled hypoxanthine); type: cell-based; conditions: for IC90: Plasmodium falciparum; for Potency against P. falciparum in words: in vitro
Procedure: The in vitro activities of quinoline methanols against P. falciparum strains W2, D6, TM91C235, and TM90C2A were evaluated using the traditional labeled hypoxanthine assay of Desjardins et al as modified by Milhous et al. These four P. falciparum strains were selected since they have various levels of resistance to conventional anti-malarials. W2 is chloroquine resistant and mefloquine sensitive, D6 is chloroquine sensitive but naturally less susceptible to mefloquine, TM91C235 is resistant to mefloquine, chloroquine, and pyrimethamine as is TM90C2A, however this latter parasite is a two pfmdr1 copy strain (pfmdr1 amplification has been associated with clinical mefloquine resistance). Mefloquine is routinely screened in these assays to ensure the validity. Historical values for mefloquine against all the strains are reported elsewhere. The focus of this study was the mefloquine-sensitive strain W2, however values for the other strains for all the compounds are reported in the Supplementary Information.

[2] = Half-life after oral dosing (data not shown); type: in vivo

SMILES	Maximum whole brain concentration [1] [ng/g]	Maximum free brain concentration [1] [ng/g]	remaining at 24 h [1] [%]	Brain concentrations (free and whole) relative to mefloquine, in words [1]	Potency against P. falciparum in words (P. falciparum strain W2)	other results
O[C@H](c1cc(C(F)(F)F)nc2c(C(F)(F)F)cccc12)[C@@H]1CCCCN1 (single isomer, unassigned) [(+) mefloquine enantiomer, reference compound]	1159	2.5	–	–	–	–
OC(c1cc(C(F)(F)F)nc2c(C(F)(F)F)cccc12)C1CCCCN1 (single isomer, unassigned; (-)) [(-) mefloquine enantiomer, reference compound]	–	–	–	–	–	Maximum whole brain concentration ([1]; 5 mg/kg): 2249 ng/g; Maximum free brain concentration ([1]; 5 mg/kg): 5.2 ng/g
OC(c1cc(C(F)(F)F)nc2c(C(F)(F)F)cccc12)C1CCCCN1 (centres unmarked) [Mefloquine, mefloquine]	–	–	35	–	–	Maximum whole brain concentration ([1]; listed as MQ, 5 mg/kg): 1807 ng/g; Maximum free brain concentration ([1]; listed as MQ, 5 mg/kg): 4.9 ng/g; IC90 (P. falciparum strain W2; mefloquine-sensitive W2 strain of P. falciparum, read-out: IC90 W2): 0.01 µg/mL (≈ 0.0264 µM)
CCCCNCC(O)c1cc(C(F)(F)F)nc2c(C(F)(F)F)cccc12 (centres unmarked) [WR177000]	–	–	–	much higher	most active	–
CNCC(O)c1cc(C(F)(F)F)nc2c(C(F)(F)F)cccc12 (centres unmarked) [WR308245]	–	–	–	much higher	most active	–
CN(C)CC(O)c1cc(C(F)(F)F)nc2c(C(F)(F)F)cccc12 (centres unmarked) [WR308246]	–	–	–	much higher	most active	–
CC(C)NCC(O)c1cc(C(F)(F)F)nc2c(C(F)(F)F)cccc12 (centres unmarked) [WR308257]	–	–	–	much higher	most active	–
OC(CN1CCCCC1)c1cc(C(F)(F)F)nc2c(C(F)(F)F)cccc12 (centres unmarked) [WR308265]	–	–	–	much higher	most active	–
CSCCCNCC(O)c1cc(C(F)(F)F)nc2c(C(F)(F)F)cccc12 (centres unmarked) [WR308278]	–	–	–	much higher	most active	–
CCC(C)CNCC(O)c1cc(C(F)(F)F)nc2c(C(F)(F)F)cccc12 (centres unmarked) [WR308387]	–	–	–	much higher	most active	–
OC(CNCCNCc1ccccc1)c1cc(C(F)(F)F)nc2c(C(F)(F)F)cccc12 (centres unmarked) [WR308396]	1768	3.5	4.6	–	acceptable potency	IC90 (P. falciparum strain W2; W2, read-out: IC90 W2): 0.006 µg/mL (≈ 0.0131 µM)
COCCNCC(O)c1cc(C(F)(F)F)nc2c(C(F)(F)F)cccc12 (centres unmarked) [WR308412]	–	–	–	much higher	most active	–
OC(CNC1CCNC1)c1cc(C(F)(F)F)nc2c(C(F)(F)F)cccc12 (centres unmarked) [WR308781]	689	5.6	3.3	–	–	IC90 (P. falciparum strain W2; W2, read-out: IC90 W2): > 0.5 µg/mL
OC(CNC1CCCNC1)c1cc(C(F)(F)F)nc2c(C(F)(F)F)cccc12 (centres unmarked) [WR318744]	593	3.5	17	–	–	IC90 (P. falciparum strain W2; W2, read-out: IC90 W2): > 0.5 µg/mL
CCCCNCCNCC(O)c1cc(C(F)(F)F)nc2c(C(F)(F)F)cccc12 (centres unmarked) [WR318746]	431	3.8	2.4	–	–	IC90 (P. falciparum strain W2; W2, read-out: IC90 W2): 0.069 µg/mL (≈ 0.163 µM)
OC(CNCC12CCC(C1)NC2)c1cc(C(F)(F)F)nc2c(C(F)(F)F)cccc12 (centres unmarked) [WR319535]	145	0.45	2.7	acceptable	modest potency	Half-life relative to mefloquine [2]: longer than mefloquine
